Assay results taken from patent US7578968B1, “Microbiological control in oil or gas field operations” (Albemarle Corporation, priority 2002, dated 2009).

Tests used:
Type in all cases: physicochemical
[1] = Reversion of PBTC to orthophosphate by oxidizing biocides; details: for Phosphate (orthophosphate from PBTC): oxidant 10 ppm as Cl2, pH 9.1, 23° C.
Protocol: (§1) The oxidants studied consisted of WELLGUARD 909 biocide, bleach (NaOCl), and activated sodium bromide (NaOCl and NaBr). The WELLGUARD 909 biocide and bleach were added directly. Activated sodium bromide was prepared in situ by introducing 20 ppm bromide ion to the stock solution followed by addition of bleach. The phosphonates used in this work consisted of AMP (aminomethylene phosphonic acid), HEDP (hydroxyethylidene diphosphonic acid), and PBTC (phosphonobutanetricarboxylic acid). These materials were commercial samples (Mayoquest 1320, 1500, and 2100, respectively) obtained from Callaway Chemical Co. (Smyrna, Ga.).
(§2) Solutions consisting of 5 ppm scale inhibitor (as active phosphonate) in the presence of 10 ppm oxidant (as Cl2) were prepared as follows. To 900 mL deionized water were added appropriate stock solutions containing phosphonate, alkalinity (NaHCO3), and calcium hardness (CaCl2). The pH was adjusted to 9.1 with 5% aq. NaOH and diluted up to 1 L in a dark amber bottle. A dose of oxidant was added to achieve a residual of 10 ppm. The solutions were then periodically monitored for phosphonate reversion by determining the reversion to orthophosphate (Hach method 490). The oxidant residual was also periodically monitored using the DPD method (Hach method 80). All of this work was performed at room temperature (23° C.). The initial active phosphonate content was confirmed by conversion to orthophosphate via UV/persulfate oxidation followed by a conventional phosphate analysis (Hach method 501). A conversion factor was applied to the phosphate measurement to determine the initial amount of active phosphonate present as follows: AMP, 1.05; HEDP, 1.085; PBTC, 2.85.

[2] = Reversion of AMP to orthophosphate by oxidizing biocides; details: for Phosphate (orthophosphate from AMP): oxidant 10 ppm as Cl2, pH 9.1, 23° C.
Protocol: as §1, §2

[3] = Comparative study of oxidation reduction potentials (ORP) and halogen residuals in cooling tower water
Protocol: The oxidants studied consisted of WELLGUARD 909 biocide, STABREX biocide (stabilized NaBr+NaOCl), bleach (NaOCl), and activated sodium bromide (NaOCl and NaBr).
Stock solutions of the biocides were prepared at 1000 ppm halogen residual concentration (as Cl2) in brown glass bottles using deionized water for dilution. Solution activities were confirmed using the DPD method and a Hach Co. (Loveland, Colo.) DR/2000 spectrophotometer.
Aliquots of the stock solutions above were added to 1000 mL of cooling tower water that had been pulled from a cooling tower. A 1000 mL beaker was charged with 1000 mL of cooling tower water and stirred while measuring ORP with a Brinkmann Metrohm 716 DMS Titrino automatic titrator. It took about 45 minutes for the sample to equilibrate—the ORP reading would gradually decline to a reading of about 300 mV. The sample was deemed to have equilibrated when the change in the ORP reading was less than or equal to 1 unit/minute. At this point, 0.5 g of stock solution (nominal halogen residual=0.5 ppm) was added and the mixture allowed to equilibrate once again. A sample was pulled to determine free and total halogen residuals and then 0.5 g additional stock solution was added and the process repeated. The following aliquots were added during the experiment: 0.5 g, 1.0 g, 2.0 g, 3.0 g, 4.0 g, 6.0 g, 8.0 g, 10.0 g.

[4] = Reversion of HEDP to orthophosphate by oxidizing biocides; details: for Phosphate (orthophosphate from HEDP): oxidant 10 ppm as Cl2, pH 9.1, 23° C.
Protocol: as §1, §2

[5] = nominal free/total ppm (as Cl2): STABREX 0.49/0.51, WELLGUARD 909 0.42/0.52, Bleach 0.50, Activated NaBr 0.48/0.52
[6] = nominal free/total ppm: STABREX 0.98/1.04, WELLGUARD 909 0.85/1.04, Bleach 1.00, Activated NaBr 0.97/1.05
[7] = nominal free/total ppm: STABREX 2.00/2.11, WELLGUARD 909 1.72/2.12, Bleach 2.04, Activated NaBr 1.97/2.14
[8] = nominal free/total ppm: STABREX 3.04/3.20, WELLGUARD 909 2.62/3.22, Bleach 3.09, Activated NaBr 2.99/3.25
[9] = nominal free/total ppm: STABREX 4.09/4.32, WELLGUARD 909 3.53/4.20, Bleach 4.17, Activated NaBr 4.03/4.39
[10] = nominal free/total ppm: STABREX 6.26/6.60, WELLGUARD 909 5.40/6.63, Bleach 6.37, Activated NaBr 6.17/6.71
[11] = nominal free/total ppm: STABREX 8.47/8.94, WELLGUARD 909 7.31/8.98, Bleach 8.63, Activated NaBr 8.35/9.08
[12] = nominal free/total ppm: STABREX 10.74/11.33, WELLGUARD 909 9.26/11.38, Bleach 10.93, Activated NaBr 10.58/11.51

[Na+].[O-]Cl [Bleach, NaOCl]
residual oxidant (as Cl2) ([1]; PBTC 5 ppm, initial oxidant 10 ppm as Cl2, pH 9.1, 23° C., 390 minutes (second 390 line)): 9.5 ppm | Phosphate (orthophosphate from PBTC) ([1]; PBTC 5 ppm, 30 minutes): 0 ppm | Phosphate (orthophosphate from PBTC) ([1]; PBTC 5 ppm, 60 minutes): 0 ppm | Phosphate (orthophosphate from PBTC) ([1]; PBTC 5 ppm, 90 minutes): 0 ppm | Phosphate (orthophosphate from PBTC) ([1]; PBTC 5 ppm, 120 minutes): 0 ppm | Phosphate (orthophosphate from PBTC) ([1]; PBTC 5 ppm, 150 minutes): 0 ppm | Phosphate (orthophosphate from PBTC) ([1]; PBTC 5 ppm, 180 minutes): 0 ppm | Phosphate (orthophosphate from PBTC) ([1]; PBTC 5 ppm, 210 minutes): 0.12 ppm | Phosphate (orthophosphate from PBTC) ([1]; PBTC 5 ppm, 270 minutes): 0.16 ppm | Phosphate (orthophosphate from PBTC) ([1]; PBTC 5 ppm, 330 minutes): 0.05 ppm | Phosphate (orthophosphate from PBTC) ([1]; PBTC 5 ppm, 360 minutes): 0.02 ppm | Phosphate (orthophosphate from PBTC) ([1]; PBTC 5 ppm, 390 minutes (first 390 line)): 0.02 ppm | Phosphate (orthophosphate from PBTC) ([1]; PBTC 5 ppm, 1360 minutes): 0.08 ppm | average amounts of phosphonate reversion ([1]; PBTC, after 3½ hours contact and beyond): 5.2% | Phosphate, average ([1]; PBTC, average 210-1360 minutes, maximum liberable phosphate: WELLGUARD 909 1.72, Activated NaBr 1.82, Bleach 1.44 ppm): 0.075 ppm | Cl2 (oxidant residual) ([2]; AMP 5 ppm, initial oxidant 10 ppm as Cl2, pH 9.1, 23° C., 460 minutes): 9.4 ppm | Phosphate (orthophosphate from AMP) ([2]; AMP 5 ppm, 20 minutes): 0.35 ppm | Phosphate (orthophosphate from AMP) ([2]; AMP 5 ppm, 40 minutes): 0.7 ppm | Phosphate (orthophosphate from AMP) ([2]; AMP 5 ppm, 70 minutes): 0.53 ppm | Phosphate (orthophosphate from AMP) ([2]; AMP 5 ppm, 100 minutes): 0.75 ppm | Phosphate (orthophosphate from AMP) ([2]; AMP 5 ppm, 130 minutes): 0.8 ppm | Phosphate (orthophosphate from AMP) ([2]; AMP 5 ppm, 190 minutes): 0.77 ppm | Phosphate (orthophosphate from AMP) ([2]; AMP 5 ppm, 220 minutes): 0.59 ppm | Phosphate (orthophosphate from AMP) ([2]; AMP 5 ppm, 250 minutes): 0.64 ppm | Phosphate (orthophosphate from AMP) ([2]; AMP 5 ppm, 280 minutes): 0.83 ppm | Phosphate (orthophosphate from AMP) ([2]; AMP 5 ppm, 310 minutes): 0.82 ppm | Phosphate (orthophosphate from AMP) ([2]; AMP 5 ppm, 340 minutes): 0.8 ppm | Phosphate (orthophosphate from AMP) ([2]; AMP 5 ppm, 370 minutes): 0.81 ppm | Phosphate (orthophosphate from AMP) ([2]; AMP 5 ppm, 400 minutes): 0.79 ppm | Phosphate (orthophosphate from AMP) ([2]; AMP 5 ppm, 520 minutes): 0.97 ppm | Phosphate (orthophosphate from AMP) ([2]; AMP 5 ppm, 1360 minutes): 0.91 ppm | averaged amounts of phosphonate reversion ([2]; AMP, Table 4 averages): 18.7% | Phosphate, average ([2]; AMP, average 100-1360 minutes, maximum liberable phosphate: WELLGUARD 909 4.58, Activated NaBr 4.18, Bleach 4.22 ppm): 0.79 ppm | loss in biocide residual ([3]; conditions of Table 3): significant loss of residual during initial stages of biocide addition | Actual Residual, ppm Free [3, 5]: 0.13 ppm | Actual Residual, ppm Total [3, 5]: 0.34 ppm | ORP Reading, mV [3, 5]: 500 mV | Actual Residual, ppm Free [3, 6]: 0.29 ppm | Actual Residual, ppm Total [3, 6]: 0.48 ppm | ORP Reading, mV [3, 6]: 620 mV | Actual Residual, ppm Free [3, 7]: 1.12 ppm | Actual Residual, ppm Total [3, 7]: 1.29 ppm | ORP Reading, mV [3, 7]: 659 mV | Actual Residual, ppm Free [3, 8]: 1.88 ppm | Actual Residual, ppm Total [3, 8]: 2.08 ppm | ORP Reading, mV [3, 8]: 672 mV | Actual Residual, ppm Free [3, 9]: 2.98 ppm | Actual Residual, ppm Total [3, 9]: 3.43 ppm | ORP Reading, mV [3, 9]: 678 mV | Actual Residual, ppm Free [3, 10]: 5.24 ppm | Actual Residual, ppm Total [3, 10]: 5.68 ppm | ORP Reading, mV [3, 10]: 683 mV | Actual Residual, ppm Free [3, 11]: 7.68 ppm | Actual Residual, ppm Total [3, 11]: 8.16 ppm | ORP Reading, mV [3, 11]: 685 mV | Actual Residual, ppm Free [3, 12]: 10.08 ppm | Actual Residual, ppm Total [3, 12]: 10.78 ppm | ORP Reading, mV [3, 12]: 689 mV | Cl2 (oxidant residual) ([4]; HEDP 5 ppm, initial oxidant 10 ppm as Cl2, pH 9.1, 23° C., 400 minutes): 10.6 ppm | Phosphate (orthophosphate from HEDP) ([4]; HEDP 5 ppm, 20 minutes): 0 ppm | Phosphate (orthophosphate from HEDP) ([4]; HEDP 5 ppm, 40 minutes): 0 ppm | Phosphate (orthophosphate from HEDP) ([4]; HEDP 5 ppm, 70 minutes): 0.2 ppm | Phosphate (orthophosphate from HEDP) ([4]; HEDP 5 ppm, 100 minutes): 0.25 ppm | Phosphate (orthophosphate from HEDP) ([4]; HEDP 5 ppm, 130 minutes): 0.31 ppm | Phosphate (orthophosphate from HEDP) ([4]; HEDP 5 ppm, 190 minutes): 0.61 ppm | Phosphate (orthophosphate from HEDP) ([4]; HEDP 5 ppm, 220 minutes): 0.65 ppm | Phosphate (orthophosphate from HEDP) ([4]; HEDP 5 ppm, 250 minutes): 0.39 ppm | Phosphate (orthophosphate from HEDP) ([4]; HEDP 5 ppm, 280 minutes): 0.41 ppm | Phosphate (orthophosphate from HEDP) ([4]; HEDP 5 ppm, 310 minutes): 0.58 ppm | Phosphate (orthophosphate from HEDP) ([4]; HEDP 5 ppm, 340 minutes): 0.65 ppm | Phosphate (orthophosphate from HEDP) ([4]; HEDP 5 ppm, 370 minutes): 0.84 ppm | Phosphate (orthophosphate from HEDP) ([4]; HEDP 5 ppm, 400 minutes): 0.65 ppm | Phosphate (orthophosphate from HEDP) ([4]; HEDP 5 ppm, 460 minutes): 0.95 ppm | Phosphate (orthophosphate from HEDP) ([4]; HEDP 5 ppm, 520 minutes, maximum liberable phosphate: WELLGUARD 909 4.20, Activated NaBr 4.40, Bleach 4.80 ppm): 0.94 ppm | relative amounts of reversion ([4]; HEDP, after 520 minutes): 19.6%
